One data set concerns HT-29. Briefly: Anti-necroptic activity in human HT-29 cells assessed as TNFalpha/Z-VAD (TSZ) induced necroptosis by measuring cell viability preincubated for 1 hr followed by TSZ addition ans measured after 24 hrs by celltiter-glo luminescent cell viability assay. It is filed as functional, cell-based.
Data set [1] can be described thus: Metabolic stability in human liver microsomes assessed as half life by LC-MS/MS analysis. It is filed as ADME.
The next data set deals with L929. In words: Anti-necroptic activity in mouse L929 cells assessed as TNFalpha/Z-VAD (TSZ) induced necroptosis by measuring cell viability preincubated for 1 hr followed by TSZ addition and measured after 24 hrs by celltiter-glo luminescent cell viability assay. It is filed as functional, cell-based.

Some results are limits rather than exact numbers.

Experimental findings from ChEMBL document CHEMBL5046240, “Design, synthesis, and evaluation of potent RIPK1 inhibitors with in vivo anti-inflammatory activity” (Eur J Med Chem, 2022) are described below.

Consider `CC(=O)Nc1nc2ccc(-c3ccc(C)c(NC(=O)OC4CCCCC4)n3)cc2s1`, for which, in the data set on HT-29, the EC50 was found to be 650 nM. Consider `CC(=O)Nc1nc2cnc(-c3cnc(C)c(NC(=O)OC4CCCCC4)c3)cc2s1`, for which the EC50 in the data set with HT-29 is over 1000 nM. Same read-out and setting: next, `Cc1ncc(-c2ccc3nc(NC(=O)c4ccccc4)sc3c2)cc1NC(=O)OC1CCCCC1`: 52 nM. As for `Cc1ncc(-c2ccc3nc(NC(=O)C4CC4)sc3c2)cc1NC(=O)OC1CCCOC1` (stereo not drawn), the EC50 in the data set with HT-29 is 27 nM. In data set [1], the half-life is 15 min. Take `CCC(=O)Nc1nc2ccc(-c3cnc(C)c(NC(=O)OC4CCCCC4)c3)cc2s1`: in the data set on HT-29, the EC50 was 38 nM.

On to `CCOC(=O)Nc1nc2ccc(-c3cnc(C)c(NC(=O)OC4CCCCC4)c3)cc2s1`, for which the EC50 in the data set on HT-29 was determined as 53 nM. Still for that read-out and setting: next, `COc1ncc(-c2ccc3nc(NC(C)=O)sc3c2)cc1NC(=O)OC1CCCCC1`: 182 nM; `CC(=O)Nc1nc2ncc(-c3cnc(C)c(NC(=O)OC4CCCCC4)c3)cc2s1`: over 1000 nM.

In the case of `CC(=O)Nc1nc2ccc(-c3cnc(C)c(NC(=O)OC4CCCCC4)c3)cc2s1`, the values for the EC50 in the data set with L929 and with HT-29 were 13 nM and 23 nM, respectively.

For `CC(=O)Nc1nc2ccc(-c3cc(NC(=O)OC4CCCCC4)c(C)nn3)cc2s1`, the EC50 in the data set on HT-29 amounted to 206 nM. Still for that read-out and setting: next, `CC(=O)Nc1nc2ccc(-c3cnc(C)c(NC(=O)OC4CCCCC4)c3)cn2n1`: over 1000 nM. With `Cc1ncc(-c2ccc3nc(NC(=O)C4CC4)sc3c2)cc1NC(=O)OC1CCC(F)(F)CC1`, the EC50 with L929 stood at 2 nM; in the data set on HT-29 it was 6.1 nM. The half-life in data set [1] turned out to be 43 min.

Regarding `Cc1ncc(-c2ccc3nc(NS(C)(=O)=O)sc3c2)cc1NC(=O)OC1CCCCC1`, in the data set with HT-29, the EC50 was over 1000 nM. Take `Cc1ncc(-c2ccc3nc(NC(=O)C4CC4)sc3c2)cc1NC(=O)OC1CCCCC1`: the half-maximal effective concentration (EC50) with L929 came out at 2.9 nM; with HT-29, 1.6 nM. Also, the half-life in data set [1] amounted to 6.5 min. Regarding `CC(=O)Nc1nc2ccc(-c3cnc(C)c(NC(=O)OC4CCCCC4)c3)nc2s1`, the EC50 with L929 stood at 30 nM; with HT-29 it was 130 nM. `Cc1ncc(-c2ccc3nc(N)sc3c2)cc1NC(=O)OC1CCCCC1`: the EC50 in the data set with HT-29 was determined as 100 nM. Turning to `Cc1ncc(-c2ccc3nc(NC(=O)C4CC4)sc3c2)cc1NC(=O)OC1CCCC1`, the EC50 with L929 came to 8.3 nM; with HT-29, 8.9 nM. In addition, in data set [1], the half-life was determined as 5.7 min. On to `CC(=O)Nc1nc2ccc(-c3cnc(C#N)c(NC(=O)OC4CCCCC4)c3)cc2s1`, for which the EC50 in the data set with HT-29 came out at 534 nM. As to `CCc1ncc(-c2ccc3nc(NC(C)=O)sc3c2)cc1NC(=O)OC1CCCCC1`, the EC50 stood at 150 nM in the data set on L929 and 74 nM in the data set on HT-29.

Take `CC(=O)Nc1cn2cc(-c3cnc(C)c(NC(=O)OC4CCCCC4)c3)ccc2n1`: the EC50 in the data set on L929 came to 45 nM; in the data set on HT-29, 97 nM.

In the case of `CNc1nc2ccc(-c3cnc(C)c(NC(=O)OC4CCCCC4)c3)cc2s1`, the EC50 in the data set with HT-29 is over 1000 nM.

On to `CC(=O)Nc1cn2nc(-c3cnc(C)c(NC(=O)OC4CCCCC4)c3)ccc2n1`, for which the EC50 with HT-29 was found to be 97 nM. `CCC(C)OC(=O)Nc1cc(-c2ccc3nc(NC(=O)C4CC4)sc3c2)cnc1C` (stereo not drawn): the EC50 in the data set with HT-29 came to 17 nM. The half-life in data set [1] turned out to be 14 min.

Turning to `Cc1ncc(-c2ccc3nc(NC(=O)C4CC4)sc3c2)cc1NC(=O)OC1CCC1`, the EC50 in the data set on HT-29 was 16 nM. On the same count and under the same terms, next, `CNC(=O)Nc1nc2ccc(-c3cnc(C)c(NC(=O)OC4CCCCC4)c3)cc2s1`: 7 nM; `CC(=O)Nc1nc2cc(-c3cnc(C)c(NC(=O)OC4CCCCC4)c3)ccn2n1`: over 1000 nM.

For `Cc1ncc(-c2ccc3nc(NC(=O)C4CC4)sc3c2)cc1NC(=O)OC1CC(C)OC(C)C1` (stereo not drawn), the EC50 with L929 worked out at 5.2 nM; in the data set with HT-29 it was 4.8 nM. Besides, the half-life in data set [1] was determined as 12 min. Turning to `CC(=O)Nc1nc2ccc(-c3cc(NC(=O)OC4CCCCC4)c(C)cn3)cc2s1`, the EC50 turned out to be 15 nM in the data set on L929 and 73 nM in the data set with HT-29.
